Assay results published in paper PMC9942557, “Bolaamphiphile Analogues of 12-bis-THA Cl2 Are Potent Antimicrobial Therapeutics with Distinct Mechanisms of Action against Bacterial, Mycobacterial, and Fungal Pathogens” (mSphere, 2022).

Assays:
[1] = system: P. aeruginosa PAO1; assay: Fluorescence microscopy, penetration of bolalipid; type: cell-based, Pseudomonas aeruginosa; details: 180 μM
Description: P. aeruginosa PAO1 was incubated with CM2 alone or in combination with tobramycin. A single colony of bacteria was collected from a Luria-Bertani (LB) agar plate and resuspended in 10 mL of LB broth overnight at 37°C, with shaking at 150 rpm. The following morning, a 2% (vol/vol) dilution was done in fresh LB broth, and the bacteria suspension was grown at 37°C with shaking at 150 rpm until it reached an OD600 of 0.3. The surface of microscopy SuperFrost glass slides (Thermo Fisher Scientific, Massachusetts, USA) was marked with a PAP pen, in order to design two square confined areas per glass slide, where the bacteria were deposited. One hundred microliters of bacterial suspension was transferred into sterile Eppendorf tubes and incubated with equal volumes of bolalipid suspension for 1 h. The bolalipid final concentration was 0.18 mM. The fluorescent Alexa Fluor 555 conjugate of wheat germ agglutinin (WGA) (Thermo Fisher Scientific) lectin membrane dye (10 μg/mL final concentration) was added to the suspension, and the bacteria were incubated for 45 min more. At the end of incubation, 100 μL was spotted in each half of the SuperFrost glass slides and incubated for 45 min more. Glass slides were then washed three times with phosphate-buffered saline (PBS) and left to dry for 5 min before addition of one drop of Fluoromount (Sigma-Aldrich, Germany) aqueous mounting medium. […]

[2] = system: Candida auris TGD1912; assay: Fluorescence microscopy, accumulation of bolalipid; type: cell-based; details: 0.18 mM (approximately 54× the MIC), 30 min
Description: Candida auris cells were picked from a yeast extract-peptone-dextrose (YPD) agar plate and resuspended in 35 mL of sterile distilled water (dH2O). After resuspension, 150 μL of cells was inoculated in 100 mL of YPD broth overnight at 30°C with shaking at 130 rpm and grown to exponential phase (5 × 10^6 to 5 × 10^7 cells/mL). Cells (6 × 10^8) were washed in standard defined (SD) medium twice (pelleted at 1,500 × g for 5 min and resuspended in 10 mL SD medium [yeast nitrogen base without the amino acids D-glucose, methionine, adenine, histidine, tryptophan, uracil, leucine, and lysine]), followed by resuspension in 1 mL SD medium containing 0.18 mM Penta-bola, and incubated at 37°C for 30 min. After treatment with the Penta-bola, cells were pelleted and resuspended in Hanks’ balanced salt solution (HBSS) and 50 μg/mL CF594 concanavalin A (Biotium). After incubation at 37°C for 30 min, cells were washed once with HBSS and resuspended in 1 mL of HBSS. Polysine adhesion slides (Thermo Scientific) were prepared by spreading 20 μL of treated cells and allowing them to dry for 30 min before adding one drop of Fluoromount (Sigma-Aldrich, Germany) aqueous mounting medium. Fluorescence images were acquired using a Leica fluorescence microscope at ×100 magnification. […]

[3] = system: G. vaginalis KC2; assay: Anaerobic broth microdilution MIC (BHI, 5% horse serum); type: cell-based, Gardnerella vaginalis; details: Gardnerella vaginalis, read-out: MIC
[4] = system: G. vaginalis KC3; assay: as above; type: cell-based, Gardnerella vaginalis; details: Gardnerella vaginalis, read-out: MIC
[5] = Maximum solubility in water; type: physicochemical; details: ultrapure water, 40 °C, thermodynamic from solid
Description: Stock solutions of bolalipids were prepared by dispersing the powder in ultrapure water, then stirring vigorously by vortexing, and sonicating in a 40°C bath sonicator for 20 min. The concentration of each stock solution corresponds to the highest solubility achieved in water for each bolalipid, using the method described above. DLS experiments were performed on a Malvern Zetasizer Nano (Malvern Instruments, Worcestershire, UK) in back-scattering mode at 20°C. There were three independent measurements of each sample and 12 runs for each measurement, with 10 s taken for each run. The attenuator index and measurement position were automatically adjusted. Fifty microliters of each sample was transferred into polystyrene semi-microcuvettes for determination of UV and visible wavelengths (Sarstedt).

## Nc1c2c([n+](CCCCCCCCCCCC[n+]3c4c(c(N)c5ccccc53)CCCC4)c3ccccc13)CCCC2 [12-bis-THA Cl2, 12,12′-(Dodecane-1,12-diyl)-bis-(9-amino-1,2,3,4-tetrahydroacridinium) chloride]
[1]
  bacterial integrity / accumulation of bolalipid: the bacteria appeared intact and the bolalipid was concentrated within the cells

## Nc1c2c([n+](CCCCCCCCCCCC[n+]3c4c(c(N)c5ccccc53)CCC4)c3ccccc13)CCC2 [Penta-bola]
[2]
  cell integrity / accumulation of bolalipid: the cells remained intact

## Cc1cc(N)c2ccccc2[n+]1CCCCCCCCCC[n+]1c(C)cc(N)c2ccccc21 [Dequalinium, dequalinium chloride, reference compound]
[3]
  MIC: 4 µg/mL
[4]
  MIC: 2 to 4 µg/mL

## Nc1c2c([n+](CCCCCCCCCCCC[n+]3c4c(c(N)c5ccccc53)CCCCCC4)c3ccccc13)CCCCCC2 [Octa-bola]
[5]
  solubility at 20 min: 360 µM
